The record followed here is patent publication US20180369087A1, “Hydrogen Peroxide Booster System for Enhanced Teeth Whitening” (Colgate-Palmolive Company, priority 2015, published 2018).

The nature of this data set: SNOBS stability in anhydrous formulation, HPLC. Type of data set: physicochemical. The conditions noted are these: for % SNOBS: composition of Table 5. The method, then:
The composition of Table 5 was aged at 40° C. and at room temperature for 8 weeks and 13 weeks respectively. The percentage of SNOBS remaining was quantified by HPLC. The results in Table 6 indicate that there is sufficient SNOBS remaining in the composition after aging at both room temperature and at 40° C. to be efficacious as a booster for the peroxide component in a tooth whitening composition.

Structures are written as SMILES.

Turning to `CCCCCCCCC(=O)Oc1ccc(S(=O)(=O)[O-])cc1.[Na+]` [SNOBS, sodium nonanoyloxybenzenesulfonate], the “% Loss of SNOBS” value is, setting by setting: (4 weeks/40° C.) 3.1%; (8 weeks/40° C.) 6.4%; (13 weeks/Room Temperature (RT)) 4.06%. Besides, the % SNOBS came out at 9.36% (4 weeks/40° C.), 8.99% (8 weeks/40° C.), 9.21% (13 weeks/Room Temperature (RT)) and 9.6% (Initial).
